Laboratory results from patent US8097585B2, “Methods of treating inflammation by administration of heme oxygenase-1 and products of heme degradation” (priority 2002, dated 2012).
“Also recorded” adds a separate entry of the source. Counter-ions that a name gives are not always drawn.

Columns and labels:
HO-1 = assay: HO activity assay on spleen and heart of treated mice; type: in vivo, DBA/2J mice; conditions: 5 mg/kg i.p., one day after treatment
Experimental: HO activity assay. DBA/2J mice were given either no treatment or CoPPIX or ZnPPIX at a dose of 5 mg/kg, i.p. (n=10 per group). One day after the treatment, the animals were sacrificed, the spleen and the heart were excised, and tissue samples were frozen at −80° C. Frozen tissue samples were homogenized in ice-cold sucrose and Tris-HCl buffer. The microsomal pellet was obtained after centrifugation and re-suspended in MgCl2-potassium phosphate buffer. Sample protein was then incubated with the reaction mixture containing rat liver cytosol, hemin, glucose-6-phosphate, glucose-6-phosphate dehydrogenase and NADPH (Sigma-Aldrich Corporation, St. Louis, Mo.) for 60 minutes at 37° C. The generated bilirubin was measured by reacting with diazotized surfanilic acid to yield azobilirubin using spectrophotometer.

[1] = tested on: B6AF1 splenocytes or purified T cells; assay: Con A and anti-CD3 mAb mediated proliferation assay; type: cell-based, mouse
Experimental: Con A and anti-CD3 mAb mediated proliferation assay. B6AF1 splenocytes or purified T cells were prepared according to the herein-described method and used as responder cells. Responders (2.5×10^5/well) were stimulated with either Con A (1 μg/ml) or anti-CD3 mAb (1 μg/ml) and cultured in a 96 well round bottom plates. Purified T cells (5×10^4/well) were cultured in anti-CD3 mAb (10 μg/ml) coated 96 well flat bottom plates in the presence of anti-CD28 mAb (1 μg/ml). Cells were cultured with or without biliverdin (at various concentrations) for 48 hours at 37° C., 95% air with 5% CO2. They were pulsed with ^3H-thymidine (1 μCi/well) 16 hours before termination of cell culture and ^3H-thymidine incorporation was measured by using a β-counter. These proliferation assays were performed in triplicate and were repeated 3 times.

IL-2 = IL-2 assay (ELISA of culture supernatant); type: cell-based, mouse; conditions: anti-CD3 mAb stimulation, biliverdin 50 or 100 μM
Experimental: IL-2 assay. B6AF1 leukocytes (2.5×10^5 cells/well) were stimulated by anti-CD3 mAb (1 μg/ml), and cultured in 96 well round bottom plates with or without biliverdin (50 or 100 μM). Forty-eight hours later, culture supernatant (100 μl) was collected and stored at −80° C. until use. All cultures were performed in triplicates. IL-2 levels in the supernatants were measured by enzyme-linked immunosorbent assays (ELISA) using an IL-2 assay kit (Quantikine® M, R&D Systems, Inc), following kit instructions. Measurements of each supernatant sample for IL-2 were performed in duplicate. The experiment was repeated 4 times.

[2] = tested on: jejunal circular muscle strips; assay: Jejunal circular muscle contractility after small intestinal transplantation (organ bath); type: in vivo, LEW rats
Experimental: Small Intestinal Transplantation. Orthotopic small intestinal transplantation (SITx) was performed in syngeneic Lewis rats. SITx with caval drainage was performed using a previously described procedure (Murase et al., in Handbook of Animal Models in Transplantation Research, Cramer et al., Eds. CRC Press, Boca Raton, Fla., pp. 203-213 (1994)). […] The graft was perfused via the aortic segment with 5 ml chilled Ringer's lactate solution, and the intestinal lumen was irrigated with 20 ml of cold saline solution containing 0.5% neomycin-sulfate (Sigma, St. Louis, Mo.). End-to-side anastomoses between the graft aorta and the recipient infrarenal aorta, and between the graft portal vein and recipient vena cava, were performed with 10-0 Novafil™ suture. The cold ischemic time was 1 hour. The entire recipient intestine was removed and the enteric continuity was restored by proximal and distal end-to-end intestinal anastomoses. Recipient animals were given 20 mg/day prophylactic cefamandole nafate for 3 postoperative days. Transplanted recipients were given water 3 hours after surgery, and were fed 24 hours after surgery.
Motility Studies. The effect of administration of biliverdin on treatment on intestinal dysmotility in transplanted grafts was assessed both in vitro and in vivo. […] In vitro circular muscle mechanical activity was measured as previously described (Eskandari et al., Am. J. Physiol. 273(3 Pt 1):G727-34, 1997). Rats were anesthetized and killed by exsanguination 24 hours post-operatively. A segment of mid-jejunum was pinned in a Sylgaard™ lined dissecting dish containing pre-oxygenated Krebs-Ringer-bicarbonate buffer (KRB; in mM: 137.4 Na^+, 5.9 K^+, 2.5 Ca^2+, 1.2 Mg^2+, 134 Cl^−, 15.5 HCO3^−, 1.2 H2PO4^−, and 11.5 glucose) that was equilibrated with 97% O2/3% CO2. […] Contractile activity was calculated by integrating the area under the trace, normalized by converting the weight and length of the strip to square millimeters of tissue (1.03 mg/mm^2), and reported as g/s/mm^2. […]

SMILES	HO-1 enzymatic activity (HO-1)	proliferation of purified T cells ([1]; anti-CD3 mAb plus anti-CD28 mAb co-stimulation)	ConA or anti-CD3 mAb driven T cell proliferation ([1]; biliverdin 50 μM)	ConA or anti-CD3 mAb driven T cell proliferation ([1]; biliverdin 100 μM)	IL-2 production by splenocytes (IL-2)	spontaneous muscle contractile activity ([2]; control (unoperated) animals treated with BV)	spontaneous contractile activity ([2]; grafts in recipients treated with BV, compared to untreated transplants, 24 hours)	bethanechol-stimulated muscle contractility ([2]; transplanted animals treated with BV versus untreated graft muscles, 24 hours, listed as BV, dihydrochloride)
C=CC1=C(C)c2cc3[n-]c(cc4nc(cc5[n-]c(cc1n2)c(C)c5CCC(=O)[O-])C(CCC(=O)[O-])=C4C)c(C)c3C=C.[Co+2].[H+].[H+] [CoPP, Cobalt protoporphyrin]	significantly enhanced	–	–	–	–	–	–	–
C=CC1=C(C)/C(=C/C2=NC(=C\c3[nH]c(/C=C4\NC(=O)C(C)=C4C=C)c(C)c3CCC(=O)O)/C(CCC(=O)O)=C2C)NC1=O [biliverdin, biliverdin dihydrochloride]	–	suppressed	significant suppressive effect	significant suppressive effect	significantly suppressed in a dose-dependent manner	no change	significantly greater	significantly improved; also recorded: Significant improvement
